Assays:
[1] = system: Malassezia furfur (ATCC No. 14521); experiment: Anti-dandruff efficacy: zone of inhibition by disc diffusion method; assay type: cell-based; parameters: key: XX denotes No Activity
Description: (§1) The anti-dandruff efficacy was determined by measuring zone of inhibition using disc diffusion method against Malassezia furfur (ATCC No. 14521). […] The culture plates were incubated at 37° C. for 48 hrs and antifungal activity was evaluated by observing an area of no growth around the disc. An area of no growth around the swatch is known as a zone of inhibition.

[2] = Anti-leaching (biocide release rate) of paint formulations, ASTM-D-6903-07
Description: The biocide (ZPTO) release rate in each test sample is calculated by the following formula: Biocide (ZPTO) release rate=(CZPTO*V*D)/(T*A) wherein, CZPTO=concentration of ZPTO in substitute ocean water (μgL^−1); V=substitute ocean water volume (L); D=hours per day; T=rotation period (hr); A=Area of paint (cm^2).

[3] = combination: ZnP 0.25 w/w % + zinc salt 0.25 w/w %
[4] = zinc salt alone 0.25 w/w %, no ZnP
[5] = zinc salt alone 0.50 w/w %, no ZnP
[6] = zinc salt alone 1.00 w/w %, no ZnP
[7] = zinc salt alone 1.50 w/w %, no ZnP
[8] = zinc salt alone 2.00 w/w %, no ZnP
[9] = combination: ZnP 0.25 w/w % + zinc salt 0.50 w/w %
[10] = combination: ZnP 0.25 w/w % + zinc salt 1.50 w/w %

Description for M. furfur: as §1
The SI is calculated based on F. C. […] SI=Qa/QA+Qb/QB Qa=the concentration of compound A in the blend; Qb=the concentration of compound B in the blend; QA=the concentration of compound A as the only biocide; QB=the concentration of compound B as the only biocide.
If SI (the Synergy Index) is greater than one, antagonism between the products is indicated. If the sum is equal to one, additivity is indicated. But when SI is less than one, synergism is shown, i.e. the lower the SI the greater the synergy shown.

| Compound | Zone of Inhibition [1, 3] | Zone of Inhibition [1, 4] | Zone of Inhibition [1, 5] | Zone of Inhibition [1, 6] | Zone of Inhibition [1, 7] | Zone of Inhibition [1, 8] | Zone of Inhibition [1, 9] | Zone of Inhibition [1, 10] | Zone of Inhibition ([1]; combination: ZnP 0.50 w/w % + zinc salt 1.50 w/w %) | Zone of Inhibition ([1]; combination: ZnP 1.00 w/w % + zinc salt 0.25 w/w %) | Zone of Inhibition ([1]; combination: ZnP 1.00 w/w % + zinc salt 0.50 w/w %) | QB = the concentration of compound B as the only biocide (minimum inhibitory concentration) (M. furfur; zinc nicotinate alone) | Zone of Inhibition ([1]; ZnP alone 0.25 w/w %) | Zone of Inhibition ([1]; ZnP alone 0.50 w/w %) | Zone of Inhibition ([1]; ZnP alone 1.00 w/w %) | Zone of Inhibition ([1]; ZnP alone 1.50 w/w %) | Zone of Inhibition ([1]; ZnP alone 2.00 w/w %) | ZPTO Conc (av.) ([2]; ZPTO concentration in artificial marine water (substitute ocean water), paint formulation) | Rate of Biocide Leaching (CZPTO * V*D)/(T*A) ([2]; paint formulation in substitute ocean water) | QA = the concentration of compound A as the only biocide (minimum inhibitory concentration) (M. furfur; zinc pyrithione alone) |
| --- | --- | --- | --- | --- | --- | --- | --- | --- | --- | --- | --- | --- | --- | --- | --- | --- | --- | --- | --- | --- |
| NCC(=O)[O-].NCC(=O)[O-].[Zn+2] [Zn-Gly] | 30 mm | XX | XX | XX | XX | XX |  |  |  |  |  |  |  |  |  |  |  |  |  |  |
| CC(O)C(=O)[O-].CC(O)C(=O)[O-].[Zn+2] (centres unmarked) [Zn-Lac] | 38 mm | XX | XX | XX | XX | XX |  |  |  |  |  |  |  |  |  |  |  |  |  |  |
| O=C([O-])c1ccccn1.O=C([O-])c1ccccn1.[Zn+2] [Zn-Pic] | 35 mm | XX | XX | XX | XX | XX | 38 mm | 38 mm |  |  |  |  |  |  |  |  |  |  |  |  |
| [O]=[Zn] [ZnO, zinc oxide] | 30 mm | XX | XX | XX | XX | XX |  | 32 mm |  |  |  |  |  |  |  |  |  |  |  |  |
| Zinc Nicotinate [Zn-Nic] | 40 mm | XX | XX | XX | XX | 6 mm | 40 mm | 38 mm | 48 mm | 32 mm | 48 mm | 35000 (QB) |  |  |  |  |  |  |  |  |
| Zinc pyrithione [ZPTO] |  |  |  |  |  |  |  |  |  |  |  |  | 30 mm | 30 mm | 30 mm | 30 mm | 30 mm | 2145.6 μgL−1 | 171.65 μgcm^2d^−1 | 8 |

Source: US10314312B2, “Synergistic antimicrobial composition of zinc pyrithione” (Jubilant Life Sciences Limited, priority 2014, dated 2019)
